Entries after “also recorded” stand apart in the source; their conditions may differ. Read-outs that look alike come from different tables or passages of the source.
Columns and labels:
HaCaT cells [1] = assay: Antiproliferative activity against HaCaT cells (CCK-8); assay type: cell-based; settings: read-out: IC50 against the proliferation of HaCaT cells
Description: (§1) As previously described, the immunosuppressive activity, lymphocyte viability, and antiproliferative activity against HaCaT cells were evaluated using the CCK-8 method ([Zhao et al. 2023], [2024]).
(§2) In the immunosuppressive and lymphocyte viability, the primary tested concentration of all compounds was 20.0 μM, and dexamethasone (Dex) (c = 2.0 μM) was used as a positive control. In the antiproliferative activity against HaCaT cells, the primary tested concentration of all compounds was 40 μM, and the positive control was methotrexate (MTX) (c = 40.0 μM). When the inhibition rates are greater than 50%, the IC50 values of active compounds will be further tested and calculated. All experiments were performed in triplicate.

[2] = system: LPS-induced B lymphocytes; assay: Anti-proliferative activity against LPS-induced B lymphocytes (CCK-8); assay type: cell-based, mouse; settings: Mus musculus, Lymphocyte; for inhibition at 20 µM: c = 20 μM; for IC50: induced proliferation of B lymphocytes (LPS), CCK-8, read-out: B cells IC50
Description: as §1, §2

[3] = system: ConA-induced T lymphocytes; assay: Anti-proliferative activity against ConA-induced T lymphocytes (CCK-8); assay type: cell-based; settings: Mus musculus, T-lymphocyte; for inhibition at 20 µM: c = 20 μM; for IC50: induced proliferation of T lymphocytes (ConA), CCK-8, read-out: T cells IC50
Description: as §1, §2

[4] = system: LPS-induced B lymphocytes; assay: Anti-proliferative activity against LPS-induced B lymphocytes (CCK-8); assay type: cell-based; settings: Mus musculus, Lymphocyte, c = 40 μM, read-out: Inhibition rate (%) B
lymphocytes [5] = assay: Lymphocyte viability (CCK-8); assay type: cell-based, mouse; settings: c = 40 μM
[6] = system: ConA-induced T lymphocytes; assay: Anti-proliferative activity against ConA-induced T lymphocytes (CCK-8); assay type: cell-based; settings: Mus musculus, T-lymphocyte, c = 40 μM, read-out: Inhibition rate (%) T
lymphocytes [7] = assay: Lymphocyte viability (CCK-8); assay type: cell-based, mouse
Description: as §1, §2

IFN-γ = assay: Cytokine analysis by ELISA of induced T cells: IFN-γ; assay type: cell-based, mouse; settings: ConA-induced T cells, 48 h; all sample groups; P < 0.0001 vs. model
Description: (§3) The mononuclear cell suspensions (2 × 10^5 cells/well) were cultured with ConA (5 μg/mL) in 96-well plates, and indicated concentrations of compounds 2, 15, and 32 were added simultaneously. After a 48-hour culture period, cytokines in the supernatants were quantified using mouse IFN-γ, IL-2, and IL-17A ELISA kits (Mabtech, Sweden), following the manufacturer’s protocol ([Jing et al. 2021]; [Zhao et al. 2024]).

[8] = system: induced T cells (Con A 5 μg/mL); assay: EdU proliferation assay, induced T cells; assay type: cell-based, mouse; settings: c = 20 μM; relative to the model group
Description: (§4) EdU fluorescence labeling for cell proliferation of induced T/B lymphocytes (2 × 10^5 cells/well) and HaCaT cells (1 × 10^4 cells/well) of active compounds 10, 19, 23, 32, 38, and 41 (final concentration 10 or 20 μM) was performed as previously reported ([Biram and Shulman 2020]; [Zhao et al. 2024]). EdU (HF488) (the Click-iT™ EdU Flow Cytometry Assay Kit, APExBIO, USA) was added 24 h (final concentration 50 μM, T and B cells) and 4 h (final concentration 10 μM, HaCaT cells) before harvesting the cells. All procedures were performed according to the manufacturer’s instructions for the click reaction. EdU-positive cells and proliferating phase cells were analyzed with a fluorescence microscope.

IL-17A = assay: Cytokine analysis by ELISA of induced T cells: IL-17A; assay type: cell-based, mouse; settings: 40 μM; ConA-induced T cells, 48 h; P < 0.05 vs. model
Description: as §3

[9] = system: induced B cells (LPS 15 μg/mL); assay: EdU proliferation assay, induced B cells; assay type: cell-based, mouse; settings: c = 20 μM; relative to the model group
Description: as §4

HaCaT cells [10] = assay: EdU proliferation assay, HaCaT cells; assay type: cell-based; settings: c = 20 μM; compared to the control group
Description: as §4

[11] = system: NF-κB p65 phosphorylation; assay: Immunofluorescence of p-p65/p65 in HaCaT cells; assay type: cell-based; settings: 31.0 μM, 36 h, P < 0.0001 vs. Con
Description: The immunofluorescence protocol was performed using the reported method ([Zhao et al. 2024]). HaCaT cells (2.0 × 10^5 cells/well) were plated onto 6-well plates with glass coverslips and adhered overnight (12 h) before compound addition. After treatment with active compounds 10 (final concentration 31 μM) and 32 (final concentration 27 μM) for 36 h, the supernatant was removed, and the cells were washed twice with PBS, fixed with 4% paraformaldehyde for 15 min, and then washed with PBS three times. After blocking, incubated with NF-κB p65 (p65)/phosphorylated NF-κB p65 (p-p65) antibodies and secondary antibodies (Servicebio, China). Then, cells were counterstained with 4,6-[…]-2-phenylindole (DAPI) for 5 min. After the PBS washing, fluorescent seal liquid was added, and the plate was monitored under an imaging system (Pannoramic MIDI, 3Dhistech, Hungary). The nucleus is blue, and positive cells are green (p-p65) or red (p65). The immunofluorescence areas for each indicator were analyzed in ImageJ.

[12] = Lymphocyte viability (CCK-8); assay type: cell-based, mouse; settings: mouse, lymphocytes; lymphocyte viability; CCK-8
Description: as §1, §2

[13] = LPS-induced B lymphocytes, read-out: Inhibition rate (%) B
[14] = ConA-induced T lymphocytes, read-out: Inhibition rate (%) T

3-methoxy-2-phenethyl-1H-pyrrole-1-carbaldehyde [Compound 35]
IC50 (HaCaT cells [1]): 31.5 ± 2.4 µM

CC12CCOC(C1)C1=C(CCC3C(C)(C(=O)O)CCCC13C)C2 (stereo not drawn) [Compound 1, 11α,16-Epoxy-isopimar-8(9)-en-19β-oic acid]
inhibition at 20 µM [2, 13]: 18.9 ± 7.5%
inhibition at 20 µM [3, 14]: 11.4 ± 6.4%
inhibition at 40 µM [4]: 20.4 ± 6.3%
Cell validity (%) (lymphocytes [5]): 90.7 ± 4.0%
inhibition at 40 µM [6]: 16.5 ± 1.5%
Cell validity (%) (lymphocytes [7]; c = 20 μM): 86.3 ± 2.1%

C[C@]1(CCO[C@H]2O[C@H](CO)[C@@H](O)[C@H](O)[C@@H]2O)CCC2=C(CC[C@H]3[C@@](C)(C(=O)O)CCC[C@]23C)C1 [Compound 2, 16-α-D-Mannopyranosyloxyisopimar-8(9)-en-19-oic acid]
IFN-γ secretion (IFN-γ): significant reduction; also recorded: significantly reduced
inhibition at 20 µM [2, 13]: 24.9 ± 8.6%
proliferation of induced T cells measured by EdU [8]: significantly suppressed the proliferation
inhibition at 20 µM [3, 14]: 23.8 ± 0.9%
inhibition at 40 µM [4]: 30.6 ± 6.2%
Cell validity (%) (lymphocytes [5]): 89.8 ± 7.9%
inhibition at 40 µM [6]: 32.8 ± 6.8%
Cell validity (%) (lymphocytes [7]; c = 20 μM): 100.0 ± 2.4%
IL-17A levels (IL-17A): markedly lowered
proliferation of induced B cells measured by EdU [9]: significantly suppressed the proliferation

C[C@]1(CCO[C@H]2O[C@H](CO)[C@@H](O)[C@H](O)[C@H]2O)CCC2=C(CC[C@H]3[C@@](C)(C(=O)O)CCC[C@]23C)C1 [Compound 3, 16-α-D-Glucopyranosyloxyisopimar-8(9)-en-19-oic acid]
inhibition at 20 µM [2, 13]: 11 ± 4.9%
inhibition at 20 µM [3, 14]: 15.7 ± 7.9%
inhibition at 40 µM [4]: 22.6 ± 9.6%
Cell validity (%) (lymphocytes [5]): 89.9 ± 4.4%
inhibition at 40 µM [6]: 26.5 ± 3.3%
Cell validity (%) (lymphocytes [7]; c = 20 μM): 87.7 ± 7.4%

CCC1CCc2occc(=O)c2C1O (stereo not drawn) [Compound 9, 6-ethyl-5-hydroxy-5,6,7,8-tetrahydro-4H-chromen-4-one]
IC50 (HaCaT cells [1]; Homo sapiens, HaCaT): 35 ± 3.1 µM

CCC1=Cc2c(occ(COC)c2=O)CC1 [Compound 10, 6-ethyl-3-(methoxymethyl)-7,8-dihydro-4H-chromen-4-one]
IC50 [2]: 8 ± 0.7 µM
IC50 [3]: > 20 µM
IC50 (HaCaT cells [1]; Homo sapiens, HaCaT): 30.9 ± 2.7 µM
proliferation rates of HaCaT cells measured by EdU (HaCaT cells [10]): significantly reduced
NF-κB activation (ratio p-p65/p65) [11]: significantly attenuated NF-κB activation
CC50 [12]: > 20 µM

CCc1ccc2occ(COC)c(=O)c2c1 [Compound 11, 6-ethyl-3-(methoxymethyl)-4H-chromen-4-one]
IC50 [2]: 20 ± 1.5 µM
IC50 [3]: > 20 µM
CC50 [12]: > 20 µM

CC[C@@]1(O)CCc2occ(COC)c(=O)c2[C@@H]1O [Compound 13, (5S,6R)-6-ethyl-5,6-dihydroxy-3-(methoxymethyl)-5,6,7,8-tetrahydro-4H-chromen-4-one]
IC50 (HaCaT cells [1]; Homo sapiens, HaCaT): 31.1 ± 2.6 µM

C[C@]1(CCO[C@H]2O[C@H](CO)[C@@H](O)[C@H](O)[C@@H]2O)CC[C@H]2C(=CC[C@@H]3[C@]2(C)CCC[C@]3(C)C(=O)O)C1 [Compound 16, 16-α-D-mannopyranosyloxyisopimar-7-en-19-oic acid]
inhibition at 20 µM [2, 13]: 19.3 ± 4.6%
inhibition at 20 µM [3, 14]: 13.1 ± 2.7%
inhibition at 40 µM [4]: 20.5 ± 10.6%
Cell validity (%) (lymphocytes [5]): 96.2 ± 1.1%
inhibition at 40 µM [6]: 20.7 ± 4.3%
Cell validity (%) (lymphocytes [7]; c = 20 μM): 101.8 ± 6.9%

C[C@]1(CCO[C@H]2O[C@H](CO)[C@@H](O)[C@H](O)[C@H]2O)CC[C@H]2C(=CC[C@@H]3[C@]2(C)CCC[C@]3(C)C(=O)O)C1 [Compound 17, 16-α-D-glucopyranosyloxyisopimar-7-en-19-oic acid]
inhibition at 20 µM [2, 13]: 11.5 ± 3.1%
inhibition at 20 µM [3, 14]: 10.1 ± 4.4%
inhibition at 40 µM [4]: 20.7 ± 6.9%
Cell validity (%) (lymphocytes [5]): 100.0 ± 8.5%
inhibition at 40 µM [6]: 16.3 ± 4.3%
Cell validity (%) (lymphocytes [7]; c = 20 μM): 94.0 ± 5.6%

COc1ccc2oc(C)cc(=O)c2c1O [Compound 19, 5-hydroxy-6-methoxy-2-methyl-4H-1-benzopyran-4-one]
IC50 (HaCaT cells [1]; Homo sapiens, HaCaT): 29.7 ± 3.3 µM
proliferation rates of HaCaT cells measured by EdU (HaCaT cells [10]): significantly reduced

COc1cccc2c1C(=O)O[C@@H](C)C2 [Compound 22, (S)-8-methoxy-3-methylisochroman-1-one]
IC50 (HaCaT cells [1]; Homo sapiens, HaCaT): 32.3 ± 1.5 µM

COc1ccc(O)c2c1C(=O)O[C@@H](C)C2 [Compound 24, (S)-5-hydroxy-8-methoxy-3-methylisochroman-1-one]
IC50 (HaCaT cells [1]; Homo sapiens, HaCaT): 32.5 ± 2 µM

COC(=O)c1ccc(O)c2c1C[C@@H](C)OC2=O [Compound 25, (R)-(−)-5-methoxycarbonylmellein]
IC50 (HaCaT cells [1]; Homo sapiens, HaCaT): 35.1 ± 1.9 µM

COC(=O)c1c[nH]c2ccccc12 [Compound 28, 1H-indole-3-carboxylic acid methyl ester]
IC50 (HaCaT cells [1]; Homo sapiens, HaCaT): 29.1 ± 1.7 µM

C[C@@H]1Cc2c(C(=O)O)ccc(O)c2C(=O)O1 [Compound 30, (R)-5-carboxymellein]
IC50 (HaCaT cells [1]; Homo sapiens, HaCaT): 31.2 ± 4.1 µM

CC(C)[C@@H](C)CC[C@@H](C)[C@H]1CC[C@H]2C3=C[C@@H](O)[C@@]4(O)C[C@@H](O)CC[C@]4(C)[C@H]3CC[C@]12C [Compound 33, (24S)-ergosta-7-ene-3β,5α,6β-triol]
IC50 (HaCaT cells [1]; Homo sapiens, HaCaT): 33.9 ± 2.8 µM

CC(C)[C@@H](C)/C=C/[C@@H](C)[C@H]1CC[C@H]2C3=CC(=O)[C@@]4(O)C[C@@H](O)CC[C@]4(C)[C@@]3(O)CC[C@]12C [Compound 34, 3β,5α,9α-trihydroxy-(22E,24R)-ergosta-7,22-dien-6-one]
IC50 (HaCaT cells [1]; Homo sapiens, HaCaT): 32.2 ± 3.4 µM

c1ccc2c3c([nH]c2c1)CNCC3 [Compound 36, tryptoline]
IC50 [2]: 16.7 ± 1.8 µM
IC50 [3]: > 20 µM
CC50 [12]: > 20 µM

CC(C)CC1NC(=O)C2CCCN2C1=O [Compound 37, cyclo-((S)-Pro-(R)-Leu))]
IC50 (HaCaT cells [1]; Homo sapiens, HaCaT): 32 ± 2.2 µM

CCCCCC=C(C(=O)O)C(C)C(=O)O (stereo not drawn) [Compound 40, 2-hexylidene-3-methylsuccinic acid]
IC50 (HaCaT cells [1]; Homo sapiens, HaCaT): 32.9 ± 3.4 µM

CC(C)C(C)C(OC1OC(CO)C(O)C(O)C1O)C(O)C(C)C1CCC2=C3C=CC4=CC(=O)CCC4(C)C3CCC21C [Compound 41, 22,23-dihydroxy-ergosta-4,6,8(14)-trien-3-one-23-β-D-glucopyranoside]
IC50 [2]: 16.7 ± 1.9 µM
IC50 [3]: 12.1 ± 1.7 µM
IC50 (HaCaT cells [1]; Homo sapiens, HaCaT): 27.7 ± 2.5 µM
proliferation rates of HaCaT cells measured by EdU (HaCaT cells [10]): significantly reduced
CC50 [12]: > 20 µM

C[C@@H]1C[C@H]2[C@@H]3CCC4=CC(=O)C=C[C@]4(C)[C@@]3(F)[C@@H](O)C[C@]2(C)[C@@]1(O)C(=O)CO [Dex, dexamethasone, reference compound]
inhibition at 2 µM ([2]; c = 2 μM, LPS-induced B lymphocytes, read-out: Inhibition rate (%) B): 68.6 ± 1.5%
IC50 [2]: 1 ± 0.05 µM
inhibition at 2 µM ([3]; c = 2 μM, ConA-induced T lymphocytes, read-out: Inhibition rate (%) T): 45.2 ± 4.9%
IC50 [3]: 1.9 ± 0.1 µM
Cell validity (%) (lymphocytes [7]; c = 2 μM): 36.9 ± 2.2%
CC50 [12]: 0.2 ± 0.04 µM

CN(Cc1cnc2nc(N)nc(N)c2n1)c1ccc(C(=O)N[C@@H](CCC(=O)O)C(=O)O)cc1 [MTX, methotrexate, reference compound]
IC50 (HaCaT cells [1]; Homo sapiens, HaCaT): 26.4 ± 1.4 µM

— publication PMC12365674, “Diverse metabolites with anti-psoriasis potential from different fermentations of the fungicolous fungus Xylarialongipes HFG1018” (IMA Fungus, 2025)
